# Source: article PMC6547681 (Nature Communications, 2019)
# System: BCL-2 G101V
# Experiment: Steady-state competition SPR against immobilised BIMBH3 peptide, BCL-2 G101V
# Assay type: binding, human
# Description: SPR experiments were performed as previously described. […] The lowest concentrations used in direct binding experiments were 1 nM for BIAcore 4000 and 0.1 nM for BIAcore S200 instruments, concentrations below these were below the sensitivity thresholds for the instruments. […] Direct binding experiments were fitted to a 1:1 binding site kinetic model, fitting on and off rates, in BIAevaluation software. For competition experiments steady-state responses were determined in BIAevaluation software according to the software defaults in affinity evaluation mode averaging responses for 5 sec. […] All affinity measurements were performed in at least two independent experiments using independent protein preparations.
smiles,measurement,setting,value
O=C(c1cc(-c2cc3c(cc2C(=O)N2Cc4ccccc4C[C@H]2CN2CCOCC2)OCO3)n2c1CCCC2)N(c1ccccc1)c1ccc(O)cc1 [S55746],S55746 binding weaker than venetoclax,BCL-2 G101V,> 10 fold
same,Raw data values in Figure 3g (SPR response),"S55746 concentration 20, BCL-2 concentration 10 nM, independent experiment 1",59.4981
same,Raw data values in Figure 3g (SPR response),"S55746 concentration 20, BCL-2 concentration 10 nM, independent experiment 2",173.158
same,Raw data values in Figure 3g (SPR response),"S55746 concentration 20, BCL-2 concentration 10 nM, independent experiment 3",34.4335
same,Raw data values in Figure 3g (SPR response),"S55746 concentration 20, BCL-2 concentration 20 nM, independent experiment 1",71.3826
same,Raw data values in Figure 3g (SPR response),"S55746 concentration 20, BCL-2 concentration 20 nM, independent experiment 2",232.183
same,Raw data values in Figure 3g (SPR response),"S55746 concentration 20, BCL-2 concentration 20 nM, independent experiment 3",41.9552
same,Raw data values in Figure 3g (SPR response),"S55746 concentration 20, BCL-2 concentration 30 nM, independent experiment 1",77.2987
same,Raw data values in Figure 3g (SPR response),"S55746 concentration 20, BCL-2 concentration 30 nM, independent experiment 2",262.629
same,Raw data values in Figure 3g (SPR response),"S55746 concentration 20, BCL-2 concentration 30 nM, independent experiment 3",45.3747
same,Raw data values in Figure 3g (SPR response),"S55746 concentration 20, BCL-2 concentration 40 nM, independent experiment 1",80.4228
same,Raw data values in Figure 3g (SPR response),"S55746 concentration 20, BCL-2 concentration 40 nM, independent experiment 2",280.533
same,Raw data values in Figure 3g (SPR response),"S55746 concentration 20, BCL-2 concentration 40 nM, independent experiment 3",47.3992
same,Raw data values in Figure 3g (SPR response),"S55746 concentration 20, BCL-2 concentration 50 nM, independent experiment 1",83.2844
same,Raw data values in Figure 3g (SPR response),"S55746 concentration 20, BCL-2 concentration 50 nM, independent experiment 2",293.102
same,Raw data values in Figure 3g (SPR response),"S55746 concentration 20, BCL-2 concentration 50 nM, independent experiment 3",48.7371
same,Raw data values in Figure 3g (SPR response),"S55746 concentration 20, BCL-2 concentration 60 nM, independent experiment 1",85.1797
same,Raw data values in Figure 3g (SPR response),"S55746 concentration 20, BCL-2 concentration 60 nM, independent experiment 2",302.908
same,Raw data values in Figure 3g (SPR response),"S55746 concentration 20, BCL-2 concentration 60 nM, independent experiment 3",49.7741
same,Raw data values in Figure 3g (SPR response),"S55746 concentration 20, BCL-2 concentration 70 nM, independent experiment 1",86.4751
same,Raw data values in Figure 3g (SPR response),"S55746 concentration 20, BCL-2 concentration 70 nM, independent experiment 2",309.956
same,Raw data values in Figure 3g (SPR response),"S55746 concentration 20, BCL-2 concentration 70 nM, independent experiment 3",50.4376
same,Raw data values in Figure 3g (SPR response),"S55746 concentration 20, BCL-2 concentration 80 nM, independent experiment 1",87.9511
same,Raw data values in Figure 3g (SPR response),"S55746 concentration 20, BCL-2 concentration 80 nM, independent experiment 2",316.608
same,Raw data values in Figure 3g (SPR response),"S55746 concentration 20, BCL-2 concentration 80 nM, independent experiment 3",51.0592
same,Raw data values in Figure 3g (SPR response),"S55746 concentration 20, BCL-2 concentration 100 nM, independent experiment 1",89.5861
same,Raw data values in Figure 3g (SPR response),"S55746 concentration 20, BCL-2 concentration 100 nM, independent experiment 2",324.599
same,Raw data values in Figure 3g (SPR response),"S55746 concentration 20, BCL-2 concentration 100 nM, independent experiment 3",51.7173
same,Raw data values in Figure 3g (SPR response),"S55746 concentration 20, BCL-2 concentration 150 nM, independent experiment 1",91.8559
same,Raw data values in Figure 3g (SPR response),"S55746 concentration 20, BCL-2 concentration 150 nM, independent experiment 2",337.351
same,Raw data values in Figure 3g (SPR response),"S55746 concentration 20, BCL-2 concentration 150 nM, independent experiment 3",52.8108
same,Raw data values in Figure 3g (SPR response),"S55746 concentration 20, BCL-2 concentration 200 nM, independent experiment 1",93.1192
same,Raw data values in Figure 3g (SPR response),"S55746 concentration 20, BCL-2 concentration 250 nM, independent experiment 2",349.701
same,Raw data values in Figure 3g (SPR response),"S55746 concentration 20, BCL-2 concentration 250 nM, independent experiment 3",53.5404
same,Raw data values in Figure 3g (SPR response),"S55746 concentration 40, BCL-2 concentration 10 nM, independent experiment 1",53.0775
same,Raw data values in Figure 3g (SPR response),"S55746 concentration 40, BCL-2 concentration 10 nM, independent experiment 2",142.314
same,Raw data values in Figure 3g (SPR response),"S55746 concentration 40, BCL-2 concentration 10 nM, independent experiment 3",29.9924
same,Raw data values in Figure 3g (SPR response),"S55746 concentration 40, BCL-2 concentration 20 nM, independent experiment 1",66.1797
same,Raw data values in Figure 3g (SPR response),"S55746 concentration 40, BCL-2 concentration 20 nM, independent experiment 2",204.771
same,Raw data values in Figure 3g (SPR response),"S55746 concentration 40, BCL-2 concentration 20 nM, independent experiment 3",38.5613
same,Raw data values in Figure 3g (SPR response),"S55746 concentration 40, BCL-2 concentration 30 nM, independent experiment 1",73.4709
same,Raw data values in Figure 3g (SPR response),"S55746 concentration 40, BCL-2 concentration 30 nM, independent experiment 2",240.258
same,Raw data values in Figure 3g (SPR response),"S55746 concentration 40, BCL-2 concentration 30 nM, independent experiment 3",42.9042
same,Raw data values in Figure 3g (SPR response),"S55746 concentration 40, BCL-2 concentration 40 nM, independent experiment 1",77.7102
same,Raw data values in Figure 3g (SPR response),"S55746 concentration 40, BCL-2 concentration 40 nM, independent experiment 2",263.387
same,Raw data values in Figure 3g (SPR response),"S55746 concentration 40, BCL-2 concentration 40 nM, independent experiment 3",45.6376
same,Raw data values in Figure 3g (SPR response),"S55746 concentration 40, BCL-2 concentration 50 nM, independent experiment 1",81.3114
same,Raw data values in Figure 3g (SPR response),"S55746 concentration 40, BCL-2 concentration 50 nM, independent experiment 2",278.636
same,Raw data values in Figure 3g (SPR response),"S55746 concentration 40, BCL-2 concentration 50 nM, independent experiment 3",47.2724
same,Raw data values in Figure 3g (SPR response),"S55746 concentration 40, BCL-2 concentration 60 nM, independent experiment 1",83.6106
same,Raw data values in Figure 3g (SPR response),"S55746 concentration 40, BCL-2 concentration 60 nM, independent experiment 2",291.594
